One experiment concerns artery. The experiment can be described thus: Arterial compression by other photoactivated material. The conditions noted are these: FIG. 13. Here is the method:
Singlet oxygen generating species, such as Rose Bengal, riboflavin, and methylene blue were tested to determine if they would be effective at arterial compression.

A short description of experiment [1]: Linker solution hydrolysis (release of drug mimic, HPLC, first order rate constant). It is filed as physicochemical. The conditions noted are these: 37° C. The method, then: The hydrolysis rate of a linker was studied without attachment to a naphthalimide compound or tissue attachment under physiological conditions. The work verified the expected hydrolysis rate and when combined with ex vivo data allows the influence of the tissue on the hydrolysis rate to be determined.
A 20 mg/mL stock solution of a drug mimic, such as an FITC derivative, was prepared by weighing out approximately 20 mg of material and diluting with 1 mL of H20. The release rate of each compound, the free mimic from its respective linker, was studied in duplicate as a function of time and pH (phosphate buffered saline (PBS) at pH=1, pH=7.4, and pH=10). The starting concentration for each preparation was 400 μg/mL of drug mimic with attached linker (20 μL of stock solution diluted with 980 μL of hydrolysis PBS). In order to more accurately mimic clinical conditions samples were prepared and stored in a 37° C. oven with slow agitation using a rotating mixer until analyzed using HPLC. The concentration of the target complex was determined in duplicates at multiple time points (t=0, 8, 24, 48, 72, 144, 216 hours) using the HPLC conditions below and quantitation using a standard curve. A 2 mg/mL stock solution of the target complex was prepared by weighing out approximately 20 mg of target complex and diluting with 10 mL of H2O. The following concentrations from the stock solution were prepared by performing serial dilutions in H2O:
Quantitation using a standard curve was used to determine the amount of drug mimic released (μg) at each time point and duplicate sample preparations at each time point were averaged. […] The detection limit of the method was 1 μg/mL. The standard curve for 3-phenylpropanol was also linear over the range of 1 μg/mL to 100 μg/mL with a detection limit of the method at 1 μg/mL.
Using the HPLC release data calculated for the free Bn and 3PP, shown below, kinetic curves were plotted (concentration vs time) for each compound using PSI Plot. The concentration was fit to a first order kinetic equation, where CT=CF−Cce^−kt (CT is the concentration at each time point (μg), CF is the final concentration (μg), Cc is the change in concentration (μg), and k is the rate constant (hr^−1). If the reaction rate didn't display first order kinetics (ie: there was a systematic deviation between the experimental points and the calculated rate constant) other kinetic models were examined. Typically data was collected until at least 90% of the expected product was released. A sample kinetic curve is shown in FIG. 15B.
The HPLC method was able to determine the identity of each compound and the component linker and drug mimic by the retention time as shown in the Table below. • Analytical Column: Alltima HP Rocket C18 3μ 53 mm×7 mm • Mobile Phase: A: 0.1% Trifluoroacetic acid(aq) (TFA), • B: 9:1 Acetonitrile:Water (0.1% TFA) • Gradient: 95% A hold for 1 minute, then ramp to 65% B at 7 minutes, hold for 0.5 minutes • (Equilibration time 5 minutes) • Detector: PDA detector at 440 nm Fluorescence detector excitation wavelength at nm emission wavelength at nm • Injection Volume: 20 μL • Flow Rate: 2.5 mL/min
Using the concentration versus time data, a rate constant was calculated for each compound at various pHs. […] The enhanced rate for the hydrolysis of the Gly/Bn is likely due to the formation of an internal 5 membered ring that would be autocatalytic.

The subject of experiment [2] is calcified plaque in postmortem diseased femoral arteries. Briefly: IVUS analysis of human cadaveric arterial samples (echogenicity). The source says: The following equipment was used in this Example: IVUS, Boston Scientific iLab 120 CARTR, UPN Product number: H749iLab120CARTRO, manufactured April 2011, Serial number 7347. The software is iReview version 1.0. The catheter is Boston Scientific Atlantis SR Pro 40 MHz Coronary Imaging Catheter, catalog number 38942, 3.6 F×135 cm.
IVUS images have identified different types of plaque, e.g., soft, mixed, hard, and calcified. M. Sahara, et al., “Soft Plaque Detected on Intravascular Ultrasound Is the Strongest Predictor of In-Stent Restenosis: an Intravascular Ultrasound Study,” European Heart Journal, 25: 2026-2033 (2004), the disclosure of which is hereby incorporated by reference. For example, calcified plaque has been identified by two characteristics, i.e., a high echogenicity resulting in an intense reflection (bright white) and the presence of an acoustic shadow behind the plaque because the ultrasound cannot penetrate the calcified plaque.
Postmortem diseased femoral arteries (both left and right) were received approximately 16 hours after the time of death. The samples were inspected to assess the level of disease. When palpated both the right and left arteries were extremely hard and rigid throughout the entire length of both arteries. Occlusion was visually judged as ranging from 20-60%. The artery was placed in PBS and IVUS pullback (0.5 mm/s) was completed three times (PRE 1, PRE 2, PRE 3). […] The artery was thoroughly rinsed with PBS to remove any excess plaque-softening compound. The artery was then placed into PBS and an IVUS pullback was conducted three times (SOAK 1, SOAK 2, SOAK 3). A balloon angioplasty catheter was placed into the artery and inflated to the reference vessel diameter (RVD) without any overstrech. A radially emitting light fiber was inserted into the catheter and centered in the angioplasty balloon. The composition was activated by exposure to blue light (447 nm) at an intensity of 1800 mW for 60 seconds. The balloon catheter was removed and an IVUS pullback was completed three times (POST 1, POST 2, POST 3).
Each frame of each pullback (PRE 1, PRE 2, PRE 3, SOAK 1, SOAK 2, SOAK 3, POST 1, POST 2, POST 3) was analyzed and calcified plaque was identified including the acoustic shadow behind each area of plaque. FIGS. 15a and 15b are the IVUS images from frame 921 of PRE 1 and illustrate the existence of plaque. For each frame, the intensity of each gray pixel (based upon 255 shades of gray, “AVI” format and 521×521 pixels) within the arterial wall was determined. FIG. 17 is a histogram illustrating the gray scale of frame 921, PRE 1, wherein the y-axis is the pixel count and the x-axis is the pixel intensity. So, for example, there were a lot of pixels having a pixel intensity of 16 and very few pixels having a pixel intensity of 168. It is known that the relative amount of hypo-echogenic and hyper-echogenic reflections can be used to measure the change in calcified plaque. See S. Brugaletta, et al., “Serial In Vivo Intravascular Ultrasound-Based Echogenicity Changes of Everolimus-eluting Bioresorbable Vascular Scaffold During the First 12 Months After Implantation,” JACC: Cardiovascular Interventions, 4 (12):1281-1289 (2011), the disclosure of which is hereby incorporated by reference. For example, it is known that pixels with a gray scale intensity of 92 or lower were judged to be hypo-echogenic and those with a gray scale intensity of 93 or higher were judged to be hyper-echogenic. To be clear, in the instant Example, the mean gray value of the adventitia was used to classify tissue components as either hypo- or hyper-echogenic. One of ordinary skill in the art could easily determine the gray scale threshold for any data set in order to classify tissue components as either hypo- or hyper-echogenic.
The pixel intensity of the entire IVUS pullback data was analyzed as a single data set. […]

The text below walks through data of patent US10131635B2, “Compositions and methods of using the compositions for plaque softening” (ALUMEND, LLC, priority 2013, dated 2018).

On to `CN(C)c1ccc2nc3ccc(=[N+](C)C)cc-3sc2c1` [methylene blue], for which the “efficacy at arterial compression” value in the experiment with artery was “No efficacy was observed”.
Take `Cc1cc2nc3c(=O)[nH]c(=O)nc-3n(C[C@H](O)[C@H](O)[C@H](O)CO)c2cc1C` [riboflavin]: in the experiment with artery, the “efficacy at arterial compression” value is given as “No efficacy was observed”.
With `NCC(=O)OCCCc1ccccc1` [Gly/3PP, 3-Phenylpropyl Glycinate], the “hydrolysis rate constant k” value in experiment [1] (pH 1, PBS) was determined as 0.004 h⁻¹; in experiment [1] (pH 7.4, PBS) it was 0.082 h⁻¹; in experiment [1] (pH 10, PBS) it was 0.155 h⁻¹.
The like results for `NCC(=O)OCc1ccccc1` [Gly/Bn, Benzyl Glycinate] were, in that order, 0.002 h⁻¹, 0.311 h⁻¹ and 0.156 h⁻¹.
Turning to `O=C([O-])c1c(Cl)c(Cl)c(Cl)c(Cl)c1-c1c2cc(I)c(=O)c(I)c-2oc2c(I)c([O-])c(I)cc12.[Na+].[Na+]` [Rose Bengal], the “efficacy at arterial compression” value in the experiment on artery was “No efficacy was observed”.
Consider `NCCCC(=O)OCc1ccccc1` [GABA/Bn, Benzyl GABA], for which the “hydrolysis rate constant k” value was found to be 0.026 h⁻¹ in experiment [1] (pH 1, PBS); 0.011 h⁻¹ in experiment [1] (pH 7.4, PBS); 0.226 h⁻¹ in experiment [1] (pH 10, PBS).
Consider `Nc1ccc2c3c(cccc13)C(=O)NC2=O` [4-amino-1,8-naphthalimide], for which, in experiment [2] (after soak, balloon and light activation), the “flexibility of artery after treatment” value was “more flexible and softer”. The “Hypo-Echogenic pixels/Hyper-Echogenic pixels” value in experiment [2] (entire IVUS pullback data, POST (soak plus balloon and 447 nm 1800 mW 60 seconds)) came to 5.011; in experiment [2] (entire IVUS pullback data, SOAK (2.5 mM, 5 minutes)), 4.699; in experiment [2] (frame 921, POST) it was 12.556; in experiment [2] (frame 921, SOAK), 7.500; in experiment [2] (frame 2925, POST) it was 21.050; in experiment [2] (frame 2925, SOAK), 9.043.
On to `NCCCC(=O)OCCCc1ccccc1` [GABA/3PP, 3-Phenylpropyl GABA], for which the “hydrolysis rate constant k” value was determined as 0.034 h⁻¹ in experiment [1] (pH 1, PBS); 0.010 h⁻¹ in experiment [1] (pH 7.4, PBS); 0.124 h⁻¹ in experiment [1] (pH 10, PBS).
